One may read the IC50 as the midpoint of a concentration-inhibition curve. A high value points to weaker potency in that assay.

The structures appear in SMILES notation. Some results are limits rather than exact numbers.

In the assay the target is Induced myeloid leukemia cell differentiation protein Mcl-1 (Homo sapiens) (UniProt Q07820). Nature of the assay: Mcl-1 Noxa peptide disruption concentration-response – biochemical, TR-FRET, dose response (AID 1417). The conditions noted are these: Mcl-1/Noxa peptide interaction, cell-free TR-FRET (terbium/rhodamine), 2 h; measured here: absolute IC50. (In TR-FRET formats the signal depends on donor and acceptor labels being close together.)
Sequence of Induced myeloid leukemia cell differentiation protein Mcl-1 (Homo sapiens) (Q07820 whole entry, looked up): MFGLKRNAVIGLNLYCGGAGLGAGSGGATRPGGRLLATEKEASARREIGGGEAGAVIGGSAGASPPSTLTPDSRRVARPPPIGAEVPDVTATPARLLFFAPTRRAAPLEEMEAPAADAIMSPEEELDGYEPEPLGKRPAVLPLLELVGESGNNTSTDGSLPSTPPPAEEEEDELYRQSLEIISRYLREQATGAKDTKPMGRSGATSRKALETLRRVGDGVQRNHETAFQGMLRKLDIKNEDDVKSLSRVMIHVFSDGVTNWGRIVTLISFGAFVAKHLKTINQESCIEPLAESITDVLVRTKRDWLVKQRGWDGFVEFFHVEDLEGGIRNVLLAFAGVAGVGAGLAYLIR
In turn, `Cc1ccc(C(=O)Nc2ccc(N3CCCC3)cc2)c(C)c1` came in with an IC50 of more than 54 µM.
For `Cc1cc2nc(-c3ccc(SCc4ccc(C(=O)O)cc4)nc3)[nH]c2cc1C` the value was less than 0.4 µM.
For `CN=c1scc(-c2cccs2)n1/N=C/c1ccc(O)c(O)c1O`, the IC50 was less than 0.4 µM.
For `O=[N+]([O-])c1ccc(/C=N/NC(=S)Nc2ccc(Cl)cc2Cl)s1` the value was 1.34 µM; for `CN1CCc2cccc3c2[C@H]1Cc1ccc(O)c(O)c1-3`, less than 0.4 µM.
In the case of `O=C1Nc2ccc(Br)cc2/C1=C/C(=O)c1ccc2c(c1)OCO2` it was 1.38 µM.
In the case of `COC1=C/C(=C/c2c(N)n3nc(-c4ccc(C)cc4)sc3nc2=O)C=CC1=O` it was 2.82 µM.
Compound `Oc1c(Cl)cc(Cl)cc1Sc1cc(Cl)cc(Cl)c1O` came in with an IC50 of 1.64 µM.
In the case of `Cc1ccc(-c2cc(C(=O)NCCCn3ccnc3)c3cc(Br)ccc3n2)o1` it was more than 54 µM; in that of `CC(C)CNC(=O)c1c(N)n(Cc2ccco2)c2nc3ccccc3nc12`, more than 54 µM; in that of `CN(C)c1ccc(C(CNC(=O)c2ccccc2Br)c2c[nH]c3ccccc23)cc1` (stereo not drawn), more than 54 µM.
For `Cc1ccc(NC(=O)CN2C(=O)S/C(=C\c3cccn3-c3cccc(C(=O)O)c3)C2=O)c(C)c1` the value was 13.1 µM; for `O=Cc1[nH]c2ccccc2c1N(C(=O)CCl)c1ccc([N+](=O)[O-])cc1`, more than 54 µM.
For the compound `Cc1ccc(-c2nc3c(c(=O)[nH]c(=O)n3Cc3ccccc3)n2C)o1`, the IC50 was less than 0.4 µM.
For `CCc1nnc(NC(=O)c2cc(-c3ccco3)nc3ccccc23)s1` the value was 2.54 µM; for `Cc1cc(C)c(S(=O)(=O)/N=C2/C=C(Sc3ncn[nH]3)C(=O)c3ccccc32)cc1C`, less than 0.4 µM.
For `N#Cc1c(NC(=O)CSc2ncnc3sccc23)oc(-c2ccco2)c1-c1ccco1` the value was 3.2 µM.
For `O=S(=O)(Nc1cc(Sc2ncn[nH]2)c(O)c2ccccc12)c1ccccc1` the value was less than 0.4 µM.
`CCc1nc(Nc2ccc(N3CCN(C(C)=O)CC3)cc2)c2oc3ccccc3c2n1` yielded an IC50 of more than 54 µM.
For `COc1cccc(/C=N/Nc2ncnc3c2[nH]c2ccc(C)cc23)c1OC`, the IC50 amounted to 4.21 µM.
For `NC(=O)c1nn(CC(=O)Nc2ccc3c(c2)OCO3)cc1[N+](=O)[O-]` the value was more than 54 µM; for `CC(C)(C)C1=CC=C(C(C)(C)C)C(=O)C1=O`, less than 0.4 µM.
For `Cc1cccc(-c2nc(Nc3ccc(N4CCOCC4)cc3)c3ccccc3n2)c1`, the IC50 is less than 0.4 µM.
`CCN(c1ccc(NC(=O)c2ccc(Cl)nc2)cc1)C(C)C` showed an IC50 of more than 54 µM.
In the case of `COc1ccc(Cc2nnc(NC(=O)Cc3cccs3)s2)cc1OC` it was 1.05 µM.
For `CCOc1ccc(C(Nc2cccnc2)c2cc(Cl)c3cccnc3c2O)cc1` (stereo not drawn) the value was 3.25 µM; for `COc1cc(SC)ccc1C(=O)N1CCN(c2ccccc2)CC1`, more than 54 µM; for `COc1cccc(C(Nc2ccccn2)c2oc(CO)cc(=O)c2O)c1` (stereo not drawn), less than 0.4 µM.
For `Nc1cc(C(=O)O)c(N)c2c1C(=O)c1ccccc1C2=O` the value was less than 0.4 µM; for `CCC1CSC(Nc2ccc(C(=O)/C=C/c3cccc(C)c3)cc2)=N1` (stereo not drawn), less than 0.4 µM.
With `COc1cc(/C=C(/NC(C)=O)C(=O)O)cc(Cl)c1OCc1ccc(Br)cc1`, the IC50 was more than 54 µM.
In the case of `O=C(Nc1nc2ccccc2[nH]1)c1ccc(Cl)c([N+](=O)[O-])c1` it was 8.74 µM; in that of `COc1ccc(CC(=O)n2[nH]c(=O)ccc2=O)cc1OC`, less than 0.4 µM; in that of `Nc1c(C(=O)NCCN2CCOCC2)c2nc3ccccc3nc2n1Cc1ccco1`, more than 54 µM.
In the case of `O=C(Nc1nccs1)c1cccc(N2C(=O)c3cccc4c([N+](=O)[O-])ccc(c34)C2=O)c1` it was more than 54 µM; in that of `O=C(O)c1ccccc1N/N=C/c1c(Sc2nnnn2-c2ccccc2)nc2ccccn2c1=O`, less than 0.4 µM.
For `Oc1ccc(N2CCN(c3ncnc4sc5c(c34)CCC5)CC2)cc1` the value was 6.63 µM; for `Cc1n[nH]c(=S)n(NC(=O)/C=C/C(=O)Nn2c(=S)[nH]nc(C)c2=O)c1=O`, less than 0.4 µM.
For `COc1cc(/C=C2/SC(=O)NC2=O)ccc1Oc1ccc([N+](=O)[O-])cc1[N+](=O)[O-]`, the IC50 stood at 4.2 µM.
For `CNc1ccc(Br)cc(C(=O)/C=C/c2ccc(OC)cc2OC)c1=O` the value was 3.53 µM; for `Nc1ccc2c(c1Cl)C(=O)c1ccc(N)c(Cl)c1C2=O`, less than 0.4 µM.
For `S=c1[nH]nc(-c2cc(-c3ccccc3)n[nH]2)n1/N=C/C(Br)=C/c1ccccc1` the value was 7.38 µM; for `O=C1Nc2ccccc2/C1=N/N=C/c1ccc(-c2ccc([N+](=O)[O-])cc2)o1`, less than 0.4 µM; for `Nc1nc(N)c2cc(Sc3ccc4ccccc4c3)ccc2n1`, 4.06 µM.
For `Cc1nc(NC(=O)c2ccccc2)sc1-c1csc(Nc2ccc(C(=O)O)cc2)n1` the value was 3.6 µM.
With `CC(C(=O)NC1CCCC1)N(Cc1ccco1)C(=O)c1snc(C(=O)NC2CCCC2)c1N` (stereo not drawn), the IC50 was more than 54 µM.
In the case of `Oc1ccc(N=Nc2cccc(Cl)c2)cc1C=Nc1ccc(N2CCOCC2)cc1` it was more than 54 µM; in that of `O=[N+]([O-])c1c(NCCO)cc(Sc2nc3ccccc3s2)c2nonc12`, more than 54 µM; in that of `Cc1cccc2cc(/C=N/NC(=O)c3ccccc3O)c(Cl)nc12`, 6.09 µM.
`Cc1cccc(N=C2NC(=O)/C(=C/C=C/c3ccco3)S2)c1C` gave an IC50 of 4.15 µM.
For `COc1cc2c(ccc3cc(OC)c(OC)c(O)c32)cc1O` the value was less than 0.4 µM.
In the case of `Oc1[nH]c2ccccc2c1N=Nc1nc2ccccc2s1` it was 5.01 µM.
On to `O=C(N/N=C/c1ccc(O)c(O)c1O)/C(=C/c1ccc([N+](=O)[O-])cc1)NC(=O)c1ccccc1`, for which the IC50 was less than 0.4 µM.
For `CC1CC1C(=O)OCC(=O)Nc1ccc2[nH]c(=O)[nH]c2c1` (stereo not drawn) the value was 4.38 µM; for `Cc1cc(NC(=O)Cc2cccs2)no1`, less than 0.4 µM; for `CC(=O)c1ccc(NC(=O)CSc2nnc(-c3ccco3)c(-c3ccco3)n2)cc1`, 5.96 µM.
Consider `CCOc1cc(/C=N/NC(=O)c2ccc(-c3csc(Nc4ccc(C)cc4)n3)cc2)ccc1OCC(=O)O`, for which the IC50 amounted to 1.07 µM.
For `O=C(O)C1Nc2c(O)cc(Cl)c([N+](=O)[O-])c2C2C=CCC12` (stereo not drawn) the value was less than 0.4 µM; for `Nc1cccc(C2=Nc3cccc4cccc(c34)N2)c1`, less than 0.4 µM; for `O=C(O)c1cc(-c2ccc(/C=C3/SC(=S)N(Cc4ccccc4)C3=O)o2)ccc1Cl`, 1.51 µM.
Turning to `O=C1NN(c2ccccc2)C(=O)/C1=C\c1ccc(-c2cc([N+](=O)[O-])ccc2O)o1`, the IC50 amounted to 9.71 µM.
For `S=c1[nH]nc(-c2cc(-c3ccccc3)n[nH]2)n1/N=C/c1c2ccccc2cc2ccccc12` the value was more than 54 µM; for `O=C(N/N=C/c1ccc(O)c(O)c1)c1ccc(CSc2cccc3cccnc23)cc1`, 3.09 µM; for `C=CCN=c1scc(-c2ccco2)n1/N=C/c1ccc(O)c(O)c1O`, more than 54 µM.
Take `CC(C)CCC(CCN1CCCC1)c1ccc2c(c1)OCO2` (stereo not drawn): the IC50 was more than 54 µM.
In the case of `CCOC(=O)c1ccc2c(c1)C1C=CCC1C(C(=O)O)N2` (stereo not drawn) it was less than 0.4 µM; in that of `O=C(N/N=C/c1ccc(-c2ccc(Cl)c(C(=O)O)c2)o1)c1cc2c(ccc3ccccc32)o1`, less than 0.4 µM.
For `CSC1=N/C(=C\c2ccccc2F)C(=O)S1` the value was more than 54 µM; for `COc1ccc(-c2ccc(/C=N/NC(=O)c3cccnc3)o2)c([N+](=O)[O-])c1`, 4.32 µM.
For `Oc1ccc(/C=N/N=C(c2ccccc2)c2ccccc2)c(O)c1O` the value was less than 0.4 µM; for `COc1ccc(N2Cc3cccc(C(=O)O)c3C2=O)cc1`, 4.79 µM; for `COc1ccc2c(c1)c1ccc3c(c1n2C)C(=O)C=CC3=O`, less than 0.4 µM.
The compound `COc1ccccc1N1C(=O)C(Cl)=C(Nc2ccccc2O)C1=O` showed an IC50 of more than 54 µM.
In the case of `CN(C)c1ccc(NC(=O)Nc2cccc(Cl)c2)cc1` it was less than 0.4 µM.
In the case of `C=C(C)C(=O)Nc1cccc(C2=NOC3(C2)C[C@@H](C(N)=O)N(C(=O)c2cc([N+](=O)[O-])cc([N+](=O)[O-])c2C)C3)c1` (stereo partly drawn) it was 4.09 µM; in that of `O=C(N=Nc1c(O)[nH]c2ccc([N+](=O)[O-])cc12)c1cc(-c2ccccc2Cl)nc2ccccc12`, less than 0.4 µM.
For `CC(C)(O)C#Cc1ccc(CN2CCN(C3CCCCC3)C(CCO)C2)cc1` (stereo not drawn) the value was more than 54 µM; for `Cc1ccc(-n2cccc2/C=C2\C(=N)N3N=C(c4ccco4)SC3=NC2=O)cc1`, 1.53 µM; for `O=C(N/N=C/c1ccco1)c1cccc(N2Cc3ccccc3C2)c1`, 3.5 µM.
The compound `O=C(O)c1ccccc1-c1ccc(/C=c2\sc3nc4cc(Br)cnc4n3c2=O)o1` gave an IC50 of 3.09 µM.
In the case of `COC(=O)C1=C(C(=O)OC)C(c2cc(Cl)ccc2O)c2sc(=O)[nH]c2S1` (stereo not drawn) it was 3.35 µM.
In the case of `O=[N+]([O-])c1ccc(O)c(/C=N/Nc2ccc(Cl)nn2)c1` it was 16.7 µM.
For `CCCCN(CC)CCNc1c(N2CCN(C(=O)OCC)CC2)c(=O)c1=O` the value was 2.17 µM; for `O=C1CCCC2=C1C(c1ccco1)Nc1ccc3ccccc3c12` (stereo not drawn), 2.22 µM; for `CCC1(C(=O)OC)CCc2c(cc(OC)c3ccccc23)C1=O` (stereo not drawn), 48.1 µM.
`CC(OC(=O)c1cccc(N2C(=O)c3ccccc3C2=O)c1)C(=O)Nc1ccc(N(C)C)cc1` (stereo not drawn): the IC50 was more than 54 µM.
For `CN1CCN(c2ccc(Cl)cc2NC(=O)c2ccc(S(=O)(=O)N3CCCCCC3)cc2)CC1` the value was 3.89 µM; for `Cc1ccc(/C=C/C(=O)Nc2ccc(N(C)C)cc2)o1`, less than 0.4 µM.
For `Cc1ccc(-c2ccc(/C=C3/NC(=O)NC3=O)o2)cc1[N+](=O)[O-]` the value was 6.44 µM; for `O=C(Nc1ccc(S(=O)(=O)Nc2nccs2)cc1)/C(=C/c1ccccc1Cl)NC(=O)c1ccccc1`, 2.93 µM.
For `COc1cc(/C=N/NC(=O)c2ccc(CN3C(=O)c4cccc5cccc3c45)cc2)cc(OC)c1O` the value was 3.43 µM; for `CN(C)c1ccc(/C=N/NC(=O)c2cccc(C(=O)N/N=C/c3ccc(N(C)C)cc3)n2)cc1`, less than 0.4 µM; for `C=CCOC(=O)C1=C(C)N=c2s/c(=C3\C(=O)N(CC(=O)O)c4ccccc43)c(=O)n2C1c1ccc(OC)cc1` (stereo not drawn), 3.48 µM.

For the origin of these results see PubChem BioAssay AID1417 (Emory University Molecular Libraries Screening Center, 2008).
